Values quoted from earlier work as cited in patent US20180344749A1, “CONTROLLED RELEASE FORMULATIONS OF SALICLATE-RELEASING ACTIVES” (Cogwellin, LLC, priority 2015, published 2018).

Assays:
tau acetylation = details: aspirin rapidly loses its acetyl group
acetyltransferase p300 = acetyltransferase p300 (Homo sapiens, UniProt Q09472); details: for tau levels: enhance tau turnover
[1] = tested on: PS19 transgenic mouse model of FTD; details: administration after disease onset
[2] = not given; remark: listed apart in the source
[3] = in terms of salicylic acid equivalents
[4] = at anti-inflammatory doses

acetyltransferase p300, sequence (Q09472 whole entry): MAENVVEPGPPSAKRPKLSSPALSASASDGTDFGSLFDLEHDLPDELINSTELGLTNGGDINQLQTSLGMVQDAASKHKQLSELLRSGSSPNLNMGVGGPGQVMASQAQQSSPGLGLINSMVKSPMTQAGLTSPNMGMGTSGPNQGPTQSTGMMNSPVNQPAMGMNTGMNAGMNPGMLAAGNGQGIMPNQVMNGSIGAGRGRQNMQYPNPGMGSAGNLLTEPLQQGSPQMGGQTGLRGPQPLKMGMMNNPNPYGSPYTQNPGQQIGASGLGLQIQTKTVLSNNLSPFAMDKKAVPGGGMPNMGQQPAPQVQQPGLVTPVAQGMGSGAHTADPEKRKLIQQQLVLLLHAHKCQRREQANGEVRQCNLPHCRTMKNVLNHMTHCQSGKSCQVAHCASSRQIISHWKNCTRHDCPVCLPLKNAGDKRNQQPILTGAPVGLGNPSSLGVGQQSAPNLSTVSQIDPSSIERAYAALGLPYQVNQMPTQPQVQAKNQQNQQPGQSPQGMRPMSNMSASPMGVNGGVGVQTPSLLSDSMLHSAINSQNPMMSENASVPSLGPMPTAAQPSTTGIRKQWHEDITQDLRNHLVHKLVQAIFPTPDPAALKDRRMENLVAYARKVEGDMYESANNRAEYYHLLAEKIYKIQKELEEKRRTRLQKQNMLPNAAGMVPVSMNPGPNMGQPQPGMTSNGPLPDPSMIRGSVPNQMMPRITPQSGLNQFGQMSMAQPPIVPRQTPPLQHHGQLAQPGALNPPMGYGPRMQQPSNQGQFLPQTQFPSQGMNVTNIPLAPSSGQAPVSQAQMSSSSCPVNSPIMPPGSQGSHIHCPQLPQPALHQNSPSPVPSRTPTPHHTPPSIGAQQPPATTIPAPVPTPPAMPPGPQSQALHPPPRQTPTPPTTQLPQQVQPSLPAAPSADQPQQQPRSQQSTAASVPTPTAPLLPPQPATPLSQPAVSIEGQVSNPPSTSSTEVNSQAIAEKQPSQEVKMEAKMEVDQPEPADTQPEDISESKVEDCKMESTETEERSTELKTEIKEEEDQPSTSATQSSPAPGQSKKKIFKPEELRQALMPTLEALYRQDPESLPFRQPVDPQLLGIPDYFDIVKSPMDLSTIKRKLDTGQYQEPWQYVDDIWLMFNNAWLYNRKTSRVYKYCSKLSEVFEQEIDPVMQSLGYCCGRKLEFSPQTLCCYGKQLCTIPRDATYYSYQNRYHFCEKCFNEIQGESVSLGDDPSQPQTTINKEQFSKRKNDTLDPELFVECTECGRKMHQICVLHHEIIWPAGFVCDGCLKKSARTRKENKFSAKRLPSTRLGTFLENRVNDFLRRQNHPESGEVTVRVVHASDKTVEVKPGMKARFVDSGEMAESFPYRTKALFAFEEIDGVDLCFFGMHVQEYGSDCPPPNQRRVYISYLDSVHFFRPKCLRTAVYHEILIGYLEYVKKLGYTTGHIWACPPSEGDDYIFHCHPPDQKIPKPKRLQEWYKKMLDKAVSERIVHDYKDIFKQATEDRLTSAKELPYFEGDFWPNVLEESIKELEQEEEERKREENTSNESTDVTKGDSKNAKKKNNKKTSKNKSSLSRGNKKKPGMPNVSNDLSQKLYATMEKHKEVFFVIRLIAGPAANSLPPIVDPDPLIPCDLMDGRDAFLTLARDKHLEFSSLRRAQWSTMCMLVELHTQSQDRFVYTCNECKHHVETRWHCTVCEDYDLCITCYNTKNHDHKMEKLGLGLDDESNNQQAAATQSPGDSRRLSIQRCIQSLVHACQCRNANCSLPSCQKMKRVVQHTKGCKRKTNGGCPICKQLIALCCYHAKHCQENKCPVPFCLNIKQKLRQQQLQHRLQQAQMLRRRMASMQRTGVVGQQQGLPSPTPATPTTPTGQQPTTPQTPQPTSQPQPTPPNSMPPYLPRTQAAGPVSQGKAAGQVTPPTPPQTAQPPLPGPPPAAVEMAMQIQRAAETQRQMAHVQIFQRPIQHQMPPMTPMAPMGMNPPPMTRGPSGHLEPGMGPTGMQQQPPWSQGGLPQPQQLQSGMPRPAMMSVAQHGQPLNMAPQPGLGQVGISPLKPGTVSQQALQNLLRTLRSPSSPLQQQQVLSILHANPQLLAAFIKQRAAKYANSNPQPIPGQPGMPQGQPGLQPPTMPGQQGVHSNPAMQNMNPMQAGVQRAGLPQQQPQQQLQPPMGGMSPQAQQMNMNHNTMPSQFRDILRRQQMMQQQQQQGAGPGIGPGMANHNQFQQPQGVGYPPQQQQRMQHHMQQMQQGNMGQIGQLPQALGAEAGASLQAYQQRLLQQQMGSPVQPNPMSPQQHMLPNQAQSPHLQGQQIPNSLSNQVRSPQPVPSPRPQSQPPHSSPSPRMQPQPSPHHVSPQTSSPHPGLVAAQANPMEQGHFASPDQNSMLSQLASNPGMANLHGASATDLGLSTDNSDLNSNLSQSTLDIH

| Structure (SMILES) | tau acetylation in cell cultures (tau acetylation) | behaviour in the pH of the stomach | acetyltransferase p300-induced tau acetylation (acetyltransferase p300) | tau levels (acetyltransferase p300) | hippocampal atrophy [1] | levels of total tau and tau acetylated at K174 [1] | p300 activity [1] | tau-induced memory deficits [1] | brain penetration ([2]; in vivo) | stability of salicylate levels after salsalate ([2]; over 8 hours) | salicylic acid obtained relative to an equivalent dose of aspirin (relative AUC) [3] | gastrointestinal bleeding and gastric erosions compared with aspirin [4] | solubility in the pH of the small intestine (small intestine pH) |
| --- | --- | --- | --- | --- | --- | --- | --- | --- | --- | --- | --- | --- | --- |
| CC(=O)Oc1ccccc1C(=O)O [aspirin, acetylsalicylic acid] | boost tau acetylation | soluble |  |  |  |  |  |  |  |  |  |  |  |
| O=C(O)c1ccccc1O [salicylate, salicylic acid] |  |  | inhibited | reduce tau levels |  |  |  |  |  |  |  |  |  |
| O=C(Oc1ccccc1C(=O)O)c1ccccc1O [salsalate] |  | undergoes particulate dispersion | inhibited | reduce tau levels | prevented | lowered | inhibited p300 activity | rescued | penetrates the brain | relatively stable salicylate levels over 8 hours | approximately 84% | significantly less | soluble |
